Experimental data reported in the CheMixHub viscosity set.

Test: xn = mol fraction of the nth substance listed

C#CC(C)(C)O + O
viscosity [mPa·s], 101.32 kPa
Details	x1 = 0.1001	x1 = 0.2003	x1 = 0.3009	x1 = 0.4001	x1 = 0.5004	x1 = 0.602	x1 = 0.7044	x1 = 0.8017	x1 = 0.9005
308.15 K	1.612	2.02	2.2	2.289	2.308	2.297	2.254	2.21	2.152
313.15 K	1.403	1.78	1.92	1.973	1.986	1.968	1.928	1.898	1.838
318.15 K	1.24	1.56	1.67	1.7	1.719	1.712	1.669	1.643	1.582
323.15 K	1.105	1.369	1.45	1.483	1.498	1.486	1.449	1.424	1.376

C1CCNCC1 + O
viscosity [mPa·s], 101 kPa
Details	x1 = 0.05	x1 = 0.1	x1 = 0.2	x1 = 0.3	x1 = 0.35	x1 = 0.4	x1 = 0.6	x1 = 0.8
298.15 K	1.9	3.06	4.76	5.4	5.42	5.13	3.38	2.05
323.15 K	0.887	1.26	1.77	1.94	1.94	1.86	1.38	0.993

CCC(=O)[O-].CC[N+]1(C)CCOCC1 + O
viscosity [mPa·s], 100 kPa
Details	x1 = 0.0672	x1 = 0.1305	x1 = 0.2131	x1 = 0.2851	x1 = 0.4005	x1 = 0.5397	x1 = 0.6231	x1 = 0.7436
298.15 K	4.98	16.4	50.3	98.7	318	1237	2366	–
303.15 K	4.23	13.2	38.8	74.6	223	796	1660	–
308.15 K	3.64	11.2	30.6	57.2	160	530	1149	–
313.15 K	3.16	9.32	24.5	44.6	119	366	786	2582
318.15 K	2.76	7.58	20	35.4	89.3	258	543	1792
323.15 K	2.44	6.46	16.5	28.7	69.1	187	372	1137

CCCC(C)O (stereo not drawn) + O
298.15 K, 101 kPa
Details	viscosity [mPa·s]
x2 = 0.008	3.443
x2 = 0.0721	3.234
x2 = 0.0934	3.182
x2 = 0.1359	3.129
x2 = 0.1655	3.111
x2 = 0.1981	3.104
x2 = 0.2187	3.114
x2 = 0.2403	3.119
x2 = 0.255	3.125
x2 = 0.2971	3.163

CCCCCCCCCCCCOS(=O)(=O)[O-].[Na+] + O
101.33 kPa
Details	viscosity [mPa·s]
303.15 K, x1 = 0.000252	0.8085
308.15 K, x1 = 0.000324	0.7345
308.15 K, x1 = 0.000432	0.7465
313.15 K, x1 = 7.2e-05	0.6585

CCN(C=O)CC + O
298.16 K, 101 kPa
Details	viscosity [mPa·s]
x2 = 0.1029	1.23
x2 = 0.247	1.47
x2 = 0.3904	1.84
x2 = 0.5426	2.38
x2 = 0.6681	2.83
x2 = 0.7344	3
x2 = 0.7646	3.01
x2 = 0.8236	2.9
x2 = 0.8813	2.53

CC[N+](CC)(CC)CC.[OH-] + O
viscosity [mPa·s], 101 kPa
Details	x1 = 0.00313	x1 = 0.0064	x1 = 0.01341	x1 = 0.02113	x1 = 0.02968	x1 = 0.03918	x1 = 0.04982
298.15 K	0.9776	1.114	1.248	1.659	2.07	2.869	3.679
303.15 K	0.8738	0.9902	1.107	1.453	1.8	2.455	3.111
313.15 K	0.7149	0.8019	0.8902	1.144	1.399	1.856	2.313
323.15 K	0.6005	0.6598	0.7359	0.9278	1.121	1.45	1.779

O=P([O-])(O)O.[Li+] + O
viscosity [mPa·s], 101 kPa
Details	x1 = 0.0018	x1 = 0.0054	x1 = 0.0089	x1 = 0.012	x1 = 0.016
298.15 K	0.9076	1.021	1.099	1.209	1.318
303.15 K	0.8338	0.9078	0.9891	1.084	1.211
308.15 K	0.7493	0.8183	0.888	0.9579	1.028
